Data set [1] is described as follows: In vivo distribution-metabolism in ocular tissues of rabbits. Particulars: rabbit, topical or ocular, 1 %, Tissue concentration. Here is the method: (§1) Adult male New Zealand albino rabbits weighing 2.5-3.5 kg were used. Standard doses of 100 μl of 1% solution of the drugs in saline solution were administered topically to both eyes of each rabbit. After appropriate time intervals (30, 60 and 120 minutes), the animals were sacrificed. Aqueous humor was obtained by making a single puncture at the limbus using a 25 g×5/8" needle attached to 1 cm^3 syringe. Then the cornea and the iris-ciliary body were isolated. The tissues were pooled and homogenized using a Tekmar SDT tissuemizer in ice cold perchloric acid (0.05M) which contained 0.05% sodium metabisulfite as antioxidant. Samples were then rehomogenized in CH3 OH to prepare 10% homogenates, transferred to micro-filters and centrifuged for 20 minutes at 10000 r/minute to precipitate proteins. Aqueous humor was analyzed as such without any further dilution. Aliquots of 5-20 μl of the 10% tissue homogenate samples were analyzed by HPLC.

Data set [2] concerns ocular tissues of rabbits. Described as above. The note with it: for Tissue concentration: after topical propranolone oxime HCl 6a 1%. Here is the method: as §1
Data set [3] concerns rabbit iris-ciliary body. The data set can be described thus: Stereospecificity of enzymatic reduction in iris-ciliary body (chiral derivatization HPLC). The note with it: iris-ciliary body of rabbit treated with the oxime. It counts as in vivo. An excerpt:
Finally, it was shown that the enzymatic reduction of the ketone is stereospecific. The extract residue from the iris-ciliary body of rabbit treated with 1-(isopropylamino)-3-(1-naphthyloxy)-2-propranolone oxime was reacted with the chiral reagent, 2,3,4,6-tetra-O-acetyl-β-D-glucoppyranosyl isocyanate, in acetonitrile and analyzed by the HPLC procedure of Sedman et al, J. Chromatogr. 278, 199-203, 1983 (Supelcosil LC-18 reversed-phase column of 7.5 cm×4.6 mm with 3 μm particles, mobile phase: 60% acetonitrile in 0.02M aqueous monobasic ammonium phosphate solution, 1 mL/min flow rate, UV detection at 254 nm).

The nature of data set [4]: In vivo distribution-metabolism in rat's blood.
Description: A group of seven adult male Sprague-Dawley rats weighing 150-250 g was used. […] After 1, 3, 5, 20, 40 and 60 minutes, one mL of blood was withdrawn from the jugular vein and dropped immediately into a tared tube containing 1 mL of ice-cold acetonitrile. The tubes were vigorously shaken, centrifuged, decanted and analyzed for propranolol 1a and propranolone oxime 5a by HPLC. Quantitation was done by using a calibration curve obtained by addition of known amounts of propranolol oxime HCl 6a to blood obtained from a control rat pretreated with saline solution.
A high pressure liquid chromatography (HPLC) method was developed for the assay of the β-blockers and their ketoxime analogs in biological fluids. […] An ASI reverse phase chrompack C18 column, operated at ambient temperature, was used for all separation. The mobile phase used for separation of propranolol 1a and propranolone oxime 5a consisted of water (90 mL), 1-heptanesulfonic acid (1g), 0.1M acetic acid (10 mL), 0.1M triethanolamine (100 mL) and methanol (799 mL).
The conditions of data set [5]: cited from earlier work.
Data set [6] has as its system rabbit iris-ciliary body. In words: Reduction of ketone in the iris-ciliary body. The format is in vivo. The note with it: 0.5% hydrochloride salt (w/v); 1.0 hour after instillation. Here is the method: It was then shown that reduction of 1-(isopropylamino)-3-(1-naphthyloxy)-2-propanone takes place in the iris-ciliary body. The compound was administered to the rabbit eye in propylene glycol/ethanol/pH=5.9 ophthalmic buffer (25:25:50 mixture, v/v) solution (concentration 0.5% hydrochloride salt, w/v). The iris-ciliary body was removed, extracted and analyzed 1.0 hour after the instillation of the compound, as described in the preceding paragraph.

Another data set concerns iris-ciliary body. The note with it: topical application to the eye; cited from earlier work.

By half-life is commonly meant the time needed for the level to fall by half in the phase considered.

`CC(C)NCC(COc1cccc2ccccc12)=NO` [propranolone oxime 5a, 1-(Isopropylamino)-3-(1-naphthyloxy)-2-propanone oxime]: the results for the concentration at 0.5 h in data set [1] (aqueous humor), in data set [1] (cornea) and in data set [1] (iris-ciliary body) were 820 ± 90 ng/g, 23800 ± 4910 ng/g and 7790 ± 1100 ng/g, respectively. Besides, the figures for the concentration at 1 h in data set [1] (aqueous humor) and in data set [1] (cornea) were 800 ± 60 ng/g and 16400 ± 5800 ng/g, respectively. In addition, the Tissue concentration in data set [2] (aqueous humor, 120 min.) amounted to 0.00 ± 0.00 mcg/g tissue; in data set [2] (cornea, 120 min.), 0.00 ± 0.00 mcg/g tissue; in data set [2] (iris-ciliary body, 60 min.), 0.00 ± 0.00 mcg/g tissue; in data set [2] (iris-ciliary body, 120 min.), 0.00 ± 0.00 mcg/g tissue. Besides, the “stereospecificity: enantiomer of propranolol formed” value in the data set with rabbit iris-ciliary body [3] is listed as “The sole presence of the S-(-)-enantiomer of 1-(isopropylamino)-3-(1-naphthyloxy)-2-propanol (propranolol) was established”. Also, in data set [4] (after i.v. oxime, disappeared 5 minutes after injection), the metabolite in blood result is reported as “another more polar compound was detected”. In data set [4] (blood, iv, 6 mg/kg), this compound yielded a half-life of 7.64 ± 0.55 min. Also, the “presence of oxime in blood” value in data set [4] (one hour after i.v. administration) is listed as “completely disappeared from the blood”.

With `CC(C)(C)NC[C@H](O)COc1nsnc1N1CCOCC1` [timolol], the “detection of parent β-adrenergic antagonist in eye compartments” value in data set [2] (after ophthalmic 6b, low dose level used) is recorded as “could not be found in any of the eye compartments”. In addition, the “side effects secondary to topical ocular administration” value in data set [5] was “a vast number of serious cardiovascular, respiratory, CNS and ocular side effects”.

Consider `CC(C)NCC(=O)COc1cccc2ccccc12` [1-(isopropylamino)-3-(1-naphthyloxy)-2-propanone], for which the “enzymatic reduction product in iris-ciliary body” value in the data set with rabbit iris-ciliary body [6] was “The enzymatic reduction product, 1-(isopropylamino)-3-(1-naphthyloxy)-2-propanol, i.e. propranolol, was clearly identified”.

On to `CNCC(=O)c1ccc(O)c(O)c1` [adrenalone], for which the “conversion to adrenaline in the eye” value with iris-ciliary body is “not adrenalone itself can be converted via a reduction-hydrolysis sequence to deliver adrenaline”.

The values above are taken from patent publication US5017618A, “Labile derivatives of ketone analogs of 3-substituted-1-alkylamino-2-propanols and their use as beta-adrenergic blockers” (priority 1989, dated 1991).
